Patent US7375083B2, “Pharmaceutical compositions for prevention of overdose or abuse” (Shire LLC, priority 2003, dated 2008)

Legend:
[1] = Intranasal bioavailability in rats, LC/MS/MS; conditions: male, Sprague-Dawley, rat, plasma, inhaled or intranasal, 3 mg/kg
[2] = Bolus intravenous bioavailability in rats, LC/MS/MS; conditions: rat
Anesthetized Dog = assay: Cardiovascular effects after intravenous bolus injection in anesthetized dogs
[3] = Serum and brain tissue levels after oral administration, LC/MS/MS; conditions: rat, 5 mg/kg d-amphetamine base

Compound: CC(Cc1ccccc1)NC(=O)C(N)CCCCN [L-lysine-d-amphetamine, 2,6-diaminohexanoic acid-(1-methyl-2-phenylethyl)-amide]
- AUC(0-inf) [1]: 9140 ng·h/mL
- AUC(0-t) [1]: 2580 ng·h/mL
- Cmax [1]: 3350 ng/mL
- Tmax [1]: 15 min
- Tmax ([2]; male, Sprague-Dawley, plasma, iv, […]): 4.98 min
- Cmax of d-amphetamine relative to d-amphetamine ([2]; bolus intravenous): about one-fourth
- DAP % Change from respective Time 0 (Anesthetized Dog; 0.5 mg/kg, TIME 0): 0%
- DAP - diastolic arterial pressure (Anesthetized Dog; 0.5 mg/kg, TIME 0): 51 mmHg
- LVP % Change from respective Time 0 (Anesthetized Dog; 0.5 mg/kg, TIME 0): 0%
- LVP - left ventricular pressure (Anesthetized Dog; 0.5 mg/kg, TIME 0): 86 mmHg
- MAP % Change from respective Time 0 (Anesthetized Dog; 0.5 mg/kg, TIME 0): 0%
- MAP - mean arterial pressure (Anesthetized Dog; 0.5 mg/kg, TIME 0): 64 mmHg
- SAP % Change from respective Time 0 (Anesthetized Dog; 0.5 mg/kg, TIME 0): 0%
- SAP - systolic arterial pressure (Anesthetized Dog; 0.5 mg/kg, TIME 0): 84 mmHg
- DAP % Change from respective Time 0 (Anesthetized Dog; 0.5 mg/kg, TIME 5): 3%
- DAP - diastolic arterial pressure (Anesthetized Dog; 0.5 mg/kg, TIME 5): 52 mmHg
- LVP % Change from respective Time 0 (Anesthetized Dog; 0.5 mg/kg, TIME 5): 2%
- LVP - left ventricular pressure (Anesthetized Dog; 0.5 mg/kg, TIME 5): 87 mmHg
- MAP % Change from respective Time 0 (Anesthetized Dog; 0.5 mg/kg, TIME 5): 3%
- MAP - mean arterial pressure (Anesthetized Dog; 0.5 mg/kg, TIME 5): 66 mmHg
- SAP % Change from respective Time 0 (Anesthetized Dog; 0.5 mg/kg, TIME 5): 4%
- SAP - systolic arterial pressure (Anesthetized Dog; 0.5 mg/kg, TIME 5): 87 mmHg
- DAP % Change from respective Time 0 (Anesthetized Dog; 0.5 mg/kg, TIME 15): 1%
- DAP - diastolic arterial pressure (Anesthetized Dog; 0.5 mg/kg, TIME 15): 51 mmHg
- LVP % Change from respective Time 0 (Anesthetized Dog; 0.5 mg/kg, TIME 15): 11%
- LVP - left ventricular pressure (Anesthetized Dog; 0.5 mg/kg, TIME 15): 95 mmHg
- MAP % Change from respective Time 0 (Anesthetized Dog; 0.5 mg/kg, TIME 15): 5%
- MAP - mean arterial pressure (Anesthetized Dog; 0.5 mg/kg, TIME 15): 67 mmHg
- SAP % Change from respective Time 0 (Anesthetized Dog; 0.5 mg/kg, TIME 15): 11%
- SAP - systolic arterial pressure (Anesthetized Dog; 0.5 mg/kg, TIME 15): 93 mmHg
- DAP % Change from respective Time 0 (Anesthetized Dog; 0.5 mg/kg, TIME 25): 8%
- DAP - diastolic arterial pressure (Anesthetized Dog; 0.5 mg/kg, TIME 25): 55 mmHg
- LVP % Change from respective Time 0 (Anesthetized Dog; 0.5 mg/kg, TIME 25): 22%
- LVP - left ventricular pressure (Anesthetized Dog; 0.5 mg/kg, TIME 25): 105 mmHg
- MAP % Change from respective Time 0 (Anesthetized Dog; 0.5 mg/kg, TIME 25): 15%
- MAP - mean arterial pressure (Anesthetized Dog; 0.5 mg/kg, TIME 25): 73 mmHg
- SAP % Change from respective Time 0 (Anesthetized Dog; 0.5 mg/kg, TIME 25): 25%
- DAP % Change from respective Time 0 (Anesthetized Dog; 0.5 mg/kg, TIME 30): 14%
- DAP - diastolic arterial pressure (Anesthetized Dog; 0.5 mg/kg, TIME 30): 58 mmHg
- LVP % Change from respective Time 0 (Anesthetized Dog; 0.5 mg/kg, TIME 30): 26%
- MAP % Change from respective Time 0 (Anesthetized Dog; 0.5 mg/kg, TIME 30): 21%
- MAP - mean arterial pressure (Anesthetized Dog; 0.5 mg/kg, TIME 30): 77 mmHg
- SAP % Change from respective Time 0 (Anesthetized Dog; 0.5 mg/kg, TIME 30): 28%
- DAP % Change from respective Time 0 (Anesthetized Dog; 1.0 mg/kg, TIME 0): 0%
- DAP - diastolic arterial pressure (Anesthetized Dog; 1.0 mg/kg, TIME 0): 55 mmHg
- LVP % Change from respective Time 0 (Anesthetized Dog; 1.0 mg/kg, TIME 0): 0%
- MAP % Change from respective Time 0 (Anesthetized Dog; 1.0 mg/kg, TIME 0): 0%
- MAP - mean arterial pressure (Anesthetized Dog; 1.0 mg/kg, TIME 0): 74 mmHg
- SAP % Change from respective Time 0 (Anesthetized Dog; 1.0 mg/kg, TIME 0): 0%
- SAP - systolic arterial pressure (Anesthetized Dog; 1.0 mg/kg, TIME 0): 105 mmHg
- DAP % Change from respective Time 0 (Anesthetized Dog; 1.0 mg/kg, TIME 5): 15%
- DAP - diastolic arterial pressure (Anesthetized Dog; 1.0 mg/kg, TIME 5): 63 mmHg
- LVP % Change from respective Time 0 (Anesthetized Dog; 1.0 mg/kg, TIME 5): 11%
- LVP - left ventricular pressure (Anesthetized Dog; 1.0 mg/kg, TIME 5): 120 mmHg
- MAP % Change from respective Time 0 (Anesthetized Dog; 1.0 mg/kg, TIME 5): 15%
- MAP - mean arterial pressure (Anesthetized Dog; 1.0 mg/kg, TIME 5): 85 mmHg
- SAP % Change from respective Time 0 (Anesthetized Dog; 1.0 mg/kg, TIME 5): 15%
- DAP % Change from respective Time 0 (Anesthetized Dog; 1.0 mg/kg, TIME 15): 33%
- DAP - diastolic arterial pressure (Anesthetized Dog; 1.0 mg/kg, TIME 15): 73 mmHg
- LVP % Change from respective Time 0 (Anesthetized Dog; 1.0 mg/kg, TIME 15): 29%
- LVP - left ventricular pressure (Anesthetized Dog; 1.0 mg/kg, TIME 15): 140 mmHg
- MAP % Change from respective Time 0 (Anesthetized Dog; 1.0 mg/kg, TIME 15): 35%
- MAP - mean arterial pressure (Anesthetized Dog; 1.0 mg/kg, TIME 15): 100 mmHg
- SAP % Change from respective Time 0 (Anesthetized Dog; 1.0 mg/kg, TIME 15): 35%
- DAP % Change from respective Time 0 (Anesthetized Dog; 1.0 mg/kg, TIME 25): 75%
- DAP - diastolic arterial pressure (Anesthetized Dog; 1.0 mg/kg, TIME 25): 97 mmHg
- LVP % Change from respective Time 0 (Anesthetized Dog; 1.0 mg/kg, TIME 25): 50%
- MAP % Change from respective Time 0 (Anesthetized Dog; 1.0 mg/kg, TIME 25): 68%
- SAP % Change from respective Time 0 (Anesthetized Dog; 1.0 mg/kg, TIME 25): 55%
- DAP % Change from respective Time 0 (Anesthetized Dog; 1.0 mg/kg, TIME 30): 32%
- DAP - diastolic arterial pressure (Anesthetized Dog; 1.0 mg/kg, TIME 30): 73 mmHg
- LVP % Change from respective Time 0 (Anesthetized Dog; 1.0 mg/kg, TIME 30): 33%
- MAP % Change from respective Time 0 (Anesthetized Dog; 1.0 mg/kg, TIME 30): 32%
- MAP - mean arterial pressure (Anesthetized Dog; 1.0 mg/kg, TIME 30): 98 mmHg
- SAP % Change from respective Time 0 (Anesthetized Dog; 1.0 mg/kg, TIME 30): 28%
- DAP % Change from respective Time 0 (Anesthetized Dog; 5.0 mg/kg, TIME 0): 0%
- DAP - diastolic arterial pressure (Anesthetized Dog; 5.0 mg/kg, TIME 0): 71 mmHg
- LVP % Change from respective Time 0 (Anesthetized Dog; 5.0 mg/kg, TIME 0): 0%
- MAP % Change from respective Time 0 (Anesthetized Dog; 5.0 mg/kg, TIME 0): 0%
- MAP - mean arterial pressure (Anesthetized Dog; 5.0 mg/kg, TIME 0): 95 mmHg
- SAP % Change from respective Time 0 (Anesthetized Dog; 5.0 mg/kg, TIME 0): 0%
- SAP - systolic arterial pressure (Anesthetized Dog; 5.0 mg/kg, TIME 0): 132 mmHg
- DAP % Change from respective Time 0 (Anesthetized Dog; 5.0 mg/kg, TIME 5): 0%
- DAP - diastolic arterial pressure (Anesthetized Dog; 5.0 mg/kg, TIME 5): 71 mmHg
- LVP % Change from respective Time 0 (Anesthetized Dog; 5.0 mg/kg, TIME 5): 5%
- MAP % Change from respective Time 0 (Anesthetized Dog; 5.0 mg/kg, TIME 5): 4%
- MAP - mean arterial pressure (Anesthetized Dog; 5.0 mg/kg, TIME 5): 99 mmHg
- SAP % Change from respective Time 0 (Anesthetized Dog; 5.0 mg/kg, TIME 5): 7%
- DAP % Change from respective Time 0 (Anesthetized Dog; 5.0 mg/kg, TIME 15): 39%
- DAP - diastolic arterial pressure (Anesthetized Dog; 5.0 mg/kg, TIME 15): 98 mmHg
- LVP % Change from respective Time 0 (Anesthetized Dog; 5.0 mg/kg, TIME 15): 28%
- MAP % Change from respective Time 0 (Anesthetized Dog; 5.0 mg/kg, TIME 15): 37%
- MAP - mean arterial pressure (Anesthetized Dog; 5.0 mg/kg, TIME 15): 130 mmHg
- SAP % Change from respective Time 0 (Anesthetized Dog; 5.0 mg/kg, TIME 15): 33%
- DAP % Change from respective Time 0 (Anesthetized Dog; 5.0 mg/kg, TIME 25): −3%
- DAP - diastolic arterial pressure (Anesthetized Dog; 5.0 mg/kg, TIME 25): 69 mmHg
- LVP % Change from respective Time 0 (Anesthetized Dog; 5.0 mg/kg, TIME 25): 11%
- LVP - left ventricular pressure (Anesthetized Dog; 5.0 mg/kg, TIME 25): 160 mmHg
- MAP % Change from respective Time 0 (Anesthetized Dog; 5.0 mg/kg, TIME 25): 1%
- MAP - mean arterial pressure (Anesthetized Dog; 5.0 mg/kg, TIME 25): 96 mmHg
- SAP % Change from respective Time 0 (Anesthetized Dog; 5.0 mg/kg, TIME 25): −5%
- DAP % Change from respective Time 0 (Anesthetized Dog; 5.0 mg/kg, TIME 30): −1%
- DAP - diastolic arterial pressure (Anesthetized Dog; 5.0 mg/kg, TIME 30): 70 mmHg
- LVP % Change from respective Time 0 (Anesthetized Dog; 5.0 mg/kg, TIME 30): 13%
- MAP % Change from respective Time 0 (Anesthetized Dog; 5.0 mg/kg, TIME 30): 4%
- MAP - mean arterial pressure (Anesthetized Dog; 5.0 mg/kg, TIME 30): 99 mmHg
- SAP % Change from respective Time 0 (Anesthetized Dog; 5.0 mg/kg, TIME 30): 0%
- SAP - systolic arterial pressure (Anesthetized Dog; 5.0 mg/kg, TIME 30): 132 mmHg
- Effect on mean blood pressure after the first (lowest) dose (Anesthetized Dog; dog, IV bolus, 0.202 mg/kg d-amphetamine, equimolar to 0.5 mg/kg L-lysine-d-amphetamine): very little change in mean BP
- Increase of mean blood pressure (Anesthetized Dog; dog, IV bolus, approximately 30 minutes after injection): 20-50%
- Intact conjugate in serum [3]: present in appreciable amounts in serum
